From patent US12139488B2, “Pyrido[3,2-d]pyrimidine compounds uses thereof for treating a proliferative disease” (Universite de Montreal, priority 2021, dated 2024)

Key:
BRAF = BRAF (Homo sapiens (Human), UniProt P15056); assay: BRAF kinase activity assay (ADP-Glo); type: biochemical; settings: read-out: Kinase IC50 (nM) BRAF
How it was run: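 Compound was tested at nine concentrations (0.01–100 nM, 0.05% DMSO final) against BRAF or CRAF phosphorylating MEK1 with ATP, for 2 h at 30 °C. ADP formed was read by ADP-Glo luminescence, and % inhibition was fitted with a four-parameter log(agonist) model to obtain IC50.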

A101D cells (BRAF V600E) = assay: Proliferation inhibition (CellTiter-Glo), A101D; type: cell-based, human; settings: 3 days, read-out: A101D Prolif. EC50
Method: (§1) All cancer cell lines (A375, A101D, A2058, RKO, HT29 SK-MEL 30, IPC298, HepG2, HCT-116, Lovo, SWV620, SW480, NCI-H358, NCI-H2122, Calu-6, NCIH2087, NCIH1755, NCIH1666 and Mewo) were obtained from ATCC and cultured in RPMI-1640 medium (Gibco) supplemented with 5% heat inactivated fetal bovine serum (FBS, Wisent) at 37° C. under 5% CO2. Cells were maintained in T175 flasks (Greiner). They were passaged by removing the culture medium, washing once in 10 mL of room temperature Phosphate Buffered Saline (PBS; Wisent) and incubating at 37° C. with 2 mL of 0.05% Trypsin (Thermo-Fisher). […]
(§2) After 3 days of incubation, the growth media were removed by aspiration and 60 μL of diluted CellTiter-Glo® reagent (10 μL CellTiter-Glo® reagent+50 μL of PBS) was added to each well. […] Luminescence signals were then acquired on a Synergy Neo2 plate reader (Biotek).
(§3) The effect of each compound dilution on the proliferation of cancer cell lines was expressed in % inhibition and calculated as follows. […]
(§4) The ability of each compound to inhibit proliferation was expressed as a EC50 value obtained by plotting the effect values for each data point of a dilution series and fitting the obtained curves using a log(agonist) versus response-variable slope (four parameters) function using GraphPadPrism (V7.0) or Dotmatics Screening Ultra platform.

A2058 cells (BRAF V600E) = assay: Proliferation inhibition (CellTiter-Glo), A2058; type: cell-based, human; settings: A2058, 3 days; read-out: A2058 Prolif. EC50
Method: as §1, §2, §3, §4

Chain of BRAF (P15056 whole entry): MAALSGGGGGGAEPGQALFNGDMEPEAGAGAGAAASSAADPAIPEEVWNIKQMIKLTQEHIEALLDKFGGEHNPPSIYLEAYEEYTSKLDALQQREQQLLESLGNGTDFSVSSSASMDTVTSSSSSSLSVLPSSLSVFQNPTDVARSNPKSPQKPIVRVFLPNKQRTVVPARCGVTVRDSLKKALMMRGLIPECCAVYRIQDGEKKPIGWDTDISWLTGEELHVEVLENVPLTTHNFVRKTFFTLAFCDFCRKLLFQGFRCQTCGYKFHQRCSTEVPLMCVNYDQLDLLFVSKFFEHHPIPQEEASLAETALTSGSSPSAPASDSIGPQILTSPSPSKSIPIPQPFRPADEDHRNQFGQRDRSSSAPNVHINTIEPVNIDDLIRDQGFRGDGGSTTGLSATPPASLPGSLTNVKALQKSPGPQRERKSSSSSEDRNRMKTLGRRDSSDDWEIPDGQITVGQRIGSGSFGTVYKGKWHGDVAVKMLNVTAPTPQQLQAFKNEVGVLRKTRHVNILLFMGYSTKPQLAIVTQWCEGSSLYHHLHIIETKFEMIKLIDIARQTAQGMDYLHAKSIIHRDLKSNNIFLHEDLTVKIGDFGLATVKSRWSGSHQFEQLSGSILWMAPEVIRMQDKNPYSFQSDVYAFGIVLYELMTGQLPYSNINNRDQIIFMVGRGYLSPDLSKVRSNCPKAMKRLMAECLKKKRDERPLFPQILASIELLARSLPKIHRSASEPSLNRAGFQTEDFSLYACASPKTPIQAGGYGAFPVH

SMILES | IC50 (BRAF) [nM] | EC50 (A101D cells (BRAF V600E)) [nM] | EC50 (A2058 cells (BRAF V600E)) [nM]
Nc1cccc2c1ncn2-c1ccc2ncnc(Nc3c(F)ccc(NS(=O)(=O)c4cccc(Cl)c4Cl)c3F)c2n1 [Example 99] | < 1 | < 30 | < 30
CC1(O)CCN(c2cccc3c2ncn3-c2ccc3ncnc(Nc4c(F)ccc(NS(=O)(=O)c5cccc(Cl)c5Cl)c4F)c3n2)CC1 [Example 524] | – | < 30 | < 30
